According to ChEMBL document CHEMBL4417631, “Oral peptide inhibitors of interleukin-23 receptor and their use to treat inflammatory bowel diseases” (2017):
Where a SMILES comes first, the peptide text is derived from it.

Molecular target: T1, Interleukin-23 receptor (Homo sapiens, UniProt Q5VWK5)
T1 sequence (Q5VWK5 whole entry): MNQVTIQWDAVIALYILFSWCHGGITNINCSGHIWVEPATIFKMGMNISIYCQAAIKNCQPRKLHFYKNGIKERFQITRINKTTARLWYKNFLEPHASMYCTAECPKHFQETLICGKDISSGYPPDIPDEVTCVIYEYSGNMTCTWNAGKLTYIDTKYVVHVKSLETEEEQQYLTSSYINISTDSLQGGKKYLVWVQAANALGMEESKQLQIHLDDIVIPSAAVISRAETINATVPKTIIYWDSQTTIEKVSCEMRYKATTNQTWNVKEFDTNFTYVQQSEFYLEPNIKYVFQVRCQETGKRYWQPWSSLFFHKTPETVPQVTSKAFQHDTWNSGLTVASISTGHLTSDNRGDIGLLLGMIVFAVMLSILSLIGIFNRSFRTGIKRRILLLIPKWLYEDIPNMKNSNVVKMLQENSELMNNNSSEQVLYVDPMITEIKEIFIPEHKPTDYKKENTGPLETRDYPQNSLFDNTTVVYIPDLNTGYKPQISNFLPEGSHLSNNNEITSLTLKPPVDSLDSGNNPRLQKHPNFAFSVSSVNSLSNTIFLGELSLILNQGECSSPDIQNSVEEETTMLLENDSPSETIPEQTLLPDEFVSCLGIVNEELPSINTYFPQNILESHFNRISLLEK
Assay: Inhibition of interleukin-23 binding to human interleukin-23 receptor incubated for 2 hrs by competitive binding ELISA

Row | SMILES | IC50 [µM]
1 | CC(=O)NC1CC/C=C\CC(C(=O)N[C@@H](Cc2ccc(O)cc2)C(=O)N[C@@H](Cc2c[nH]c3ccccc23)C(=O)N[C@@H](CCCNC(=N)N)C(=O)N[C@@H](CCCCN)C(=O)N[C@@H](Cc2ccccc2)C(=O)NCC(=O)NCCOCC(=O)N[C@H](CCCCN)C(N)=O)NC(=O)[C@H](CCC(N)=O)NC(=O)[C@H](Cc2c[nH]c3ccccc23)NC(=O)[C@H]([C@@H](C)O)NC(=O)[C@H](CCCNC(=N)N)NC1=O (stereo not given in full) | 0.1 to 1
2 | CC(=O)N[C@@H](CCCNC(=N)N)C(=O)N[C@@H](CCC(=O)O)C(=O)NCC(=O)N[C@H](C(=O)N[C@@H](CS)C(=O)N[C@@H](CO)C(=O)N[C@H](C(=O)N[C@@H](Cc1c[nH]c2ccccc12)C(=O)N[C@@H](CCCCN)C(=O)N[C@@H](CS)C(=O)N[C@@H](Cc1ccc(O)cc1)C(=O)N[C@@H](Cc1c[nH]c2ccccc12)C(=O)N[C@@H](Cc1cnc[nH]1)C(=O)N[C@H](C(=O)N[C@@H](Cc1ccccc1)C(=O)NCC(N)=O)[C@@H](C)O)[C@@H](C)O)[C@@H](C)O (Ac-REGTCSTWKCYWHTFG-NH2) | 0.5 to 1
3 | CC(=O)N[C@@H](CS)C(=O)N[C@@H](C)C(=O)N[C@@H](CC(=O)O)C(=O)N[C@@H](Cc1c[nH]c2ccccc12)C(=O)N[C@H](C(=O)N[C@@H](CS)C(=O)N[C@@H](Cc1ccc(O)cc1)C(=O)N[C@@H](Cc1c[nH]c2ccccc12)C(=O)N[C@@H](Cc1cnc[nH]1)C(=O)N[C@H](C(=O)N[C@@H](Cc1ccccc1)C(=O)NCC(N)=O)[C@@H](C)O)C(C)C | > 1
4 | CC(=O)N[C@@H](CS)C(=O)N[C@@H](CCC(N)=O)C(=O)N[C@H](C(=O)N[C@@H](Cc1c[nH]c2ccccc12)C(=O)N[C@@H](CCC(N)=O)C(=O)N[C@@H](CS)C(=O)N[C@@H](CCc1ccc(O)cc1)C(=O)N[C@@H](Cc1c[nH]c2ccccc12)C(=O)N[C@@H](CCC(C)C)C(=O)N[C@@H](CCC(=O)O)C(=O)N[C@@H](CC(N)=O)C(=O)NCC(N)=O)[C@@H](C)O | 6
5 | CC(=O)N[C@H]1CCSC[C@@H](C(=O)N[C@@H](Cc2ccc(Cl)c(Cl)c2)C(=O)N[C@@H](Cc2ccc3ccccc3c2)C(=O)NC(C)(C)C(=O)N[C@@H](CCC(=O)O)C(=O)N[C@@H](CC(N)=O)C(=O)NCC(N)=O)NC(=O)[C@H](CCC(N)=O)NC(=O)[C@H](Cc2c[nH]c3ccccc23)NC(=O)[C@H]([C@@H](C)O)NC(=O)[C@H](CCC(N)=O)NC1=O | 0.1 to 1
6 | CC(=O)N[C@H](CCCCN)C(=O)N[C@@H](CS)C(=O)N[C@@H](C)C(=O)N[C@@H](CC(=O)O)C(=O)N[C@@H](Cc1c[nH]c2ccccc12)C(=O)N[C@H](C(=O)N[C@@H](CS)C(=O)N[C@@H](Cc1ccc(O)cc1)C(=O)N[C@@H](Cc1c[nH]c2ccccc12)C(=O)N[C@@H](Cc1cnc[nH]1)C(=O)N[C@H](C(=O)N[C@@H](Cc1ccccc1)C(=O)NCC(=O)O)[C@@H](C)O)C(C)C | > 1
7 | CC(=O)N[C@H](C(=O)N[C@@H](CCC(N)=O)C(=O)N[C@@H](Cc1ccccc1)C(=O)N[C@@H](CC(=O)O)C(=O)N[C@@H](CS)C(=O)N[C@@H](CCCNC(=N)N)C(=O)N[C@H](C(=O)N[C@@H](Cc1c[nH]c2ccccc12)C(=O)N[C@@H](CCC(=O)O)C(=O)N[C@@H](CS)C(=O)N[C@@H](Cc1ccc(O)cc1)C(=O)N[C@@H](Cc1c[nH]c2ccccc12)C(=O)N[C@@H](Cc1cnc[nH]1)C(=O)N[C@H](C(=O)N[C@@H](Cc1ccccc1)C(=O)NCC(N)=O)[C@@H](C)O)[C@@H](C)O)[C@@H](C)O | 0.5 to 1
8 | CC(C)[C@H](NC(=O)[C@H](Cc1c[nH]c2ccccc12)NC(=O)[C@H](CC(=O)O)NC(=O)[C@H](C)NC(=O)[C@@H](N)CS)C(=O)N[C@@H](CS)C(=O)N[C@@H](Cc1ccc(O)cc1)C(=O)N1Cc2ccccc2C[C@H]1C(=O)N[C@@H](Cc1cnc[nH]1)C(=O)N[C@H](C(=O)N[C@@H](Cc1ccccc1)C(=O)NCC(N)=O)[C@@H](C)O | > 1
9 | CC(=O)N[C@@H](CS)C(=O)N[C@@H](C)C(=O)N[C@@H](CC(=O)O)C(=O)N[C@@H](Cc1c[nH]c2ccccc12)C(=O)N[C@@H](CCC(=O)O)C(=O)N[C@@H](CS)C(=O)N[C@@H](Cc1ccc(O)cc1)C(=O)N[C@@H](Cc1c[nH]c2ccccc12)C(=O)N[C@@H](Cc1cnc[nH]1)C(=O)N[C@H](C(=O)N[C@@H](Cc1ccccc1)C(=O)NCC(N)=O)[C@@H](C)O | > 1
10 | CC(=O)N[C@@H](CS)C(=O)N[C@@H](C)C(=O)N[C@@H](CC(=O)O)C(=O)N[C@@H](Cc1c[nH]c2ccccc12)C(=O)N[C@H](C(=O)N[C@@H](CS)C(=O)N[C@@H](Cc1ccc(O)cc1)C(=O)N[C@@H](Cc1ccc(C(F)(F)F)cc1)C(=O)N[C@@H](CCCN)C(=O)N[C@@H](CN)C(=O)N[C@@H](Cc1ccccc1)C(=O)NCC(=O)NCCOCC(=O)N[C@H](CCCCN)C(N)=O)C(C)C | > 1
11 | CC(=O)N[C@@H](CS)C(=O)N[C@@H](CCC(N)=O)C(=O)N[C@H](C(=O)N[C@@H](Cc1c[nH]c2ccccc12)C(=O)N[C@@H](CCC(N)=O)C(=O)N[C@@H](CS)C(=O)N[C@H](C(=O)N[C@@H](Cc1c[nH]c2ccccc12)C(=O)N[C@@H](CCC(C)C)C(=O)N[C@@H](CCC(=O)O)C(=O)N[C@@H](CC(N)=O)C(=O)NCC(N)=O)[C@@H](C)O)[C@@H](C)O | > 30
12 | CC(=O)N[C@@H](CS)C(=O)N[C@@H](CCC(N)=O)C(=O)N[C@H](C(=O)N[C@@H](Cc1c[nH]c2ccccc12)C(=O)N[C@@H](CCC(N)=O)C(=O)N[C@@H](CS)C(=O)N[C@@H](Cc1ccc(O)cc1)C(=O)N[C@H](CC(=O)N[C@@H](CCCNC(=N)N)C(=O)N[C@H](C(=O)N[C@@H](CC(N)=O)C(=O)NCC(=O)NCCOCC(=O)N[C@H](CCCCN)C(N)=O)C(C)C)Cc1ccc(O)cc1)[C@@H](C)O | > 30
13 | CC(=O)N[C@@H](C)C(=O)N[C@H](C(=O)N[C@@H](CC(=O)O)C(=O)N[C@@H](Cc1c[nH]c2ccccc12)C(=O)N[C@H](C(=O)N[C@H](C(=O)N[C@@H](Cc1ccc(O)cc1)C(=O)N[C@@H](Cc1c[nH]c2ccccc12)C(=O)N[C@@H](CCCNC(=N)N)C(=O)N[C@@H](CCCCN)C(=O)N[C@@H](Cc1ccccc1)C(=O)NCC(=O)NCCOCC(=O)N[C@H](CCCCN)C(N)=O)C(C)(C)S)C(C)C)C(C)(C)S | > 30
14 | CC(=O)N[C@@H](CS)C(=O)N[C@@H](CCCCN)C(=O)N[C@@H](CC(=O)O)C(=O)N[C@@H](Cc1c[nH]c2ccccc12)C(=O)N[C@H](C(=O)N[C@@H](CS)C(=O)N[C@@H](Cc1ccc(O)cc1)C(=O)N[C@@H](Cc1c[nH]c2ccccc12)C(=O)N[C@@H](Cc1cnc[nH]1)C(=O)N[C@H](C(=O)N[C@@H](Cc1ccccc1)C(=O)NCC(=O)O)[C@@H](C)O)C(C)C | > 1
15 | CC(=O)NCCCC[C@H](NC(=O)[C@](C)(CCCCN)NC(=O)NC(=O)[C@H](Cc1ccc(OCCN)cc1)NC(=O)[C@@H]1CSCC[C@H](NC(C)=O)C(=O)N[C@@H](CCC(N)=O)C(=O)N[C@@H]([C@@H](C)O)C(=O)N[C@@H](Cc2c[nH]c3ccccc23)C(=O)N[C@@H](CCC(N)=O)C(=O)N1)C(=O)N[C@@H](CC(N)=O)C(=O)NCC(N)=O | > 3
16 | CC(=O)N[C@@H](CS)C(=O)N[C@@H](CCCNC(=N)N)C(=O)N[C@@H](CC(=O)O)C(=O)N[C@@H](Cc1c[nH]c2ccccc12)C(=O)N[C@@H](CCC(N)=O)C(=O)N[C@@H](CS)C(=O)N[C@@H](Cc1ccc(O)cc1)C(=O)N[C@@H](Cc1c[nH]c2ccccc12)C(=O)N[C@@H](CCCNC(=N)N)C(=O)N[C@H](CCCCN)C(=O)N[C@@H](Cc1ccccc1)C(=O)NCC(=O)NCCOCCC(=O)N[C@H](CCCCN)C(N)=O | > 1
17 | CC(C)[C@H](NC(=O)[C@H](Cc1c[nH]c2ccccc12)NC(=O)[C@H](CC(=O)O)NC(=O)[C@H](C)NC(=O)[C@@H](N)CS)C(=O)N[C@@H](CS)C(=O)N[C@@H](Cc1ccc(O)cc1)C(=O)N[C@@H](Cc1cccc2ccccc12)C(=O)N(C)[C@@H](Cc1cnc[nH]1)C(=O)N[C@H](C(=O)N[C@@H](Cc1ccccc1)C(=O)O)[C@@H](C)O | > 1
18 | CC(=O)N[C@@H](CS)C(=O)N[C@@H](CCCNC(=N)N)C(=O)N[C@H](C(=O)N[C@@H](Cc1c[nH]c2ccccc12)C(=O)N[C@@H](CCC(=O)O)C(=O)N[C@@H](CS)C(=O)N[C@@H](Cc1ccc(O)cc1)C(=O)N[C@@H](Cc1c[nH]c2ccccc12)C(=O)N[C@@H](Cc1cnc[nH]1)C(=O)N[C@@H](CCC(=O)O)C(=O)N[C@@H](Cc1ccc(O)cc1)C(=O)NCC(N)=O)[C@@H](C)O (Ac-CRTWECYWHEYG-NH2) | < 0.5
19 | CC(=O)N[C@@H](CS)C(=O)N[C@@H](C)C(=O)N[C@@H](CC(=O)O)C(=O)N[C@@H](Cc1c[nH]c2ccccc12)C(=O)N[C@H](C(=O)N[C@@H](CS)C(=O)N[C@@H](Cc1ccc(O)cc1)C(=O)N[C@@H](Cc1cccc2ccccc12)C(=O)N[C@H](C(=O)N[C@H](C(=O)N[C@@H](Cc1ccccc1)C(=O)NCC(N)=O)[C@@H](C)O)C(C)C)C(C)C | 0.5 to 1
20 | CC(=O)N[C@@H](CS)C(=O)N[C@@H](C)C(=O)N[C@@H](CC(=O)O)C(=O)N[C@@H](Cc1c[nH]c2ccccc12)C(=O)N[C@H](C(=O)N[C@@H](CS)C(=O)N[C@@H](Cc1ccc(O)cc1)C(=O)N[C@@H](Cc1c[nH]c2ccccc12)C(=O)N[C@@H](Cc1cnc[nH]1)C(=O)N[C@@H](CCCNC(=N)N)C(=O)N[C@@H](CS)C(=O)NCC(=O)N[C@@H](Cc1c[nH]c2ccccc12)C(=O)N[C@@H](Cc1c[nH]c2ccccc12)C(=O)NCC(=O)N[C@@H](CS)C(N)=O)C(C)C (Ac-CADWVCYWHRCGWWGC-NH2) | > 1
